Experimental data as given in patent US20240384350A1, “METHODS OF TREATING CANCER WITH KINASE INHIBITORS” (BOARD OF REGENTS, THE UNIVERSITY OF TEXAS SYSTEM, priority 2021, published 2024).

What was measured:
Test in all cases: Ba/F3 drug screening, Cell Titer Glo, IC50 Mut/WT
Format in all cases: cell-based
EGFR S784F = biological target: T1, EGFR S784F (Homo sapiens, UniProt P00533, S784F); conditions: Classical-Like, 72 hours
T1 construct: expressed in transfected cells; host or cells: Ba/F3 cells, retroviral pBabe-Puro vector (vector made by GeneScript from EGFR WT)
Procedure: (§1) Data represent the ratio of the IC50 value for a given TKI for cells with a classical-like EGFR mutation to the IC50 value for cells with wildtype EGFR.
(§2) Ba/F3 cell generation, drug screening, and IC50 approximations. Ba/F3 cells were obtained as a gift from Dr. Gordon Mills (MD Anderson Cancer Center), and maintained in RPMI (Sigma) containing 10% FBS, 1% penicillin/streptomycin, and 10 ng/ml recombinant mIL-3 (R&D Biosystems). To establish stable Ba/F3 cell lines, Ba/F3 cells were transduced with retroviruses containing mutant EGFR plasmids for 12-24 hours.
(§3) After 48-72 hours of transduction, 2 μg/ml puromycin (Invitrogen) was added to Ba/F3 cell lines in complete RPMI. To select for EGFR positive cell lines, cells were stained with PE-EGFR (Biolegend) and sorted by FACS. After sorting, EGFR positive cells were maintained in RPMI containing 10% FBS, 1% penicillin/streptomycin, and 1 ng/ml EGF to support cell viability. […] Shortly, cells were plated in 384-well plates (Greiner Bio-One) at 2000-3000 cells per well in technical triplicate. Seven different concentrations of TKIs or DMSO vehicle were added to reach a final volume of 40 μL per well. After 72 hours, 11 μL of Cell Titer Glo (Promega) was added to each well. Plates were incubated for a minimum of 10 minutes, and bioluminescence was determined using a FLUOstar OPTIMA plate reader (BMG LABTECH). Raw bioluminescence values were normalized to DMSO control treated cells, and values were plotted in GraphPad Prism. […] Drug screens were performed in technical triplicate on each plate and either duplicate or triplicate biological replicates.

EGFR L861Q = biological target: T2, EGFR L861Q (Homo sapiens, UniProt P00533, L861Q); conditions: Classical-Like, 72 hours
T2 construct: expressed in transfected cells; host or cells: Ba/F3 cells, retroviral pBabe-Puro vector

EGFR S811F = biological target: T3, EGFR S811F (Homo sapiens, UniProt P00533, S811F); conditions: Classical-Like, 72 hours
T3 construct: expressed in transfected cells; host or cells: Ba/F3 cells, retroviral pBabe-Puro vector (vector made by GeneScript from EGFR WT)
Procedure: as §1, §2, §3

EGFR N771dupN = biological target: T4, EGFR N771dupN (Homo sapiens, UniProt P00533, DUP771-771); conditions: Ex20, 72 hours
T4 construct: expressed in transfected cells; host or cells: Ba/F3 cells, retroviral pBabe-Puro vector

EGFR N771dupN G724S = biological target: T5, EGFR N771dupN G724S (Homo sapiens, UniProt P00533, DUP771-771/G724S); conditions: Ex20, 72 hours
T5 construct: expressed in transfected cells; host or cells: Ba/F3 cells, retroviral pBabe-Puro vector (vector made by GeneScript from EGFR G724S, c.2313_2314insAAC)

EGFR T790M = biological target: T6, EGFR T790M (Homo sapiens, UniProt P00533, T790M); conditions: T790M-like-3S, 72 hours
T6 construct: expressed in transfected cells; host or cells: Ba/F3
Procedure: (§4) Data represent the ratio of the IC50 value for a given TKI for cells with a T790M-like-3S EGFR mutation to the IC50 value for cells with wildtype EGFR.
as §2
(§5) After 48-72 hours of transduction, 2 μg/ml puromycin (Invitrogen) was added to Ba/F3 cell lines in complete RPMI. To select for EGFR positive cell lines, cells were stained with PE-EGFR (Biolegend) and sorted by FACS. After sorting, EGFR positive cells were maintained in RPMI containing 10% FBS, 1% penicillin/streptomycin, and 1 ng/ml EGF to support cell viability. Drug screening was performed as previously described^41,42. Shortly, cells were plated in 384-well plates (Greiner Bio-One) at 2000-3000 cells per well in technical triplicate. Seven different concentrations of TKIs or DMSO vehicle were added to reach a final volume of 40 μL per well. After 72 hours, 11 μL of Cell Titer Glo (Promega) was added to each well. Plates were incubated for a minimum of 10 minutes, and bioluminescence was determined using a FLUOstar OPTIMA plate reader (BMG LABTECH). Raw bioluminescence values were normalized to DMSO control treated cells, and values were plotted in GraphPad Prism. […] Drug screens were performed in technical triplicate on each plate and either duplicate or triplicate biological replicates.

EGFR L858R/T790M = biological target: T7, EGFR L858R/T790M (Homo sapiens, UniProt P00533, L858R/T790M); conditions: T790M-like-3S, 72 hours
T7 construct: expressed in transfected cells; host or cells: Ba/F3

EGFR G719A T790M = biological target: T8, EGFR G719A T790M (Homo sapiens, UniProt P00533, G719A/T790M); conditions: T790M-like-3S, 72 hours
T8 construct: expressed in transfected cells; host or cells: Ba/F3
Procedure: as §4, §2, §5

EGFR G719S T790M = biological target: T9, EGFR G719S T790M (Homo sapiens, UniProt P00533, G719S/T790M); conditions: T790M-like-3S, 72 hours
T9 construct: expressed in transfected cells; host or cells: Ba/F3

EGFR S768I/T790M = biological target: T10, EGFR S768I/T790M (Homo sapiens, UniProt P00533, S768I/T790M); conditions: T790M-like-3S, 72 hours
T10 construct: expressed in transfected cells; host or cells: Ba/F3

EGFR L858R T790M L792H = biological target: T11, EGFR L858R T790M L792H (Homo sapiens, UniProt P00533, L792H/L858R/T790M); conditions: T790M-like-3S, 72 hours
T11 construct: expressed in transfected cells; host or cells: Ba/F3
Procedure: as §4, §2, §5

EGFR Ex19del T790M L718V = biological target: T12, EGFR Ex19del T790M L718V (Homo sapiens, UniProt P00533, DEL746-750/L718V/T790M); conditions: T790M-like-3S, 72 hours
T12 construct: expressed in transfected cells; host or cells: Ba/F3

EGFR Ex19del/T790M/L792H = biological target: T13, EGFR Ex19del/T790M/L792H (Homo sapiens, UniProt P00533, DEL746-750/L792H/T790M); conditions: T790M-like-3R, 72 hours
T13 construct: expressed in transfected cells; host or cells: Ba/F3
Procedure: Data represent the ratio of the IC50 value for a given TKI for cells with a T790M-like-3R EGFR mutation to the IC50 value for cells with wildtype EGFR.
as §2
After 48-72 hours of transduction, 2 μg/ml puromycin (Invitrogen) was added to Ba/F3 cell lines in complete RPMI. To select for EGFR positive cell lines, cells were stained with PE-EGFR (Biolegend) and sorted by FACS. After sorting, EGFR positive cells were maintained in RPMI containing 10% FBS, 1% penicillin/streptomycin, and 1 ng/ml EGF to support cell viability. […] Shortly, cells were plated in 384-well plates (Greiner Bio-One) at 2000-3000 cells per well in technical triplicate. Seven different concentrations of TKIs or DMSO vehicle were added to reach a final volume of 40 μL per well. After 72 hours, 11 μL of Cell Titer Glo (Promega) was added to each well. Plates were incubated for a minimum of 10 minutes, and bioluminescence was determined using a FLUOstar OPTIMA plate reader (BMG LABTECH). Raw bioluminescence values were normalized to DMSO control treated cells, and values were plotted in GraphPad Prism. […] Drug screens were performed in technical triplicate on each plate and either duplicate or triplicate biological replicates. […] Statistical differences between groups were determined by ANOVA as described in the figure legends.

EGFR E709A G719S = biological target: T14, EGFR E709A G719S (Homo sapiens, UniProt P00533, E709A/G719S); conditions: PACC; E709A G719S; Ba/F3; 72 hours
T14 construct: expressed in transfected cells; host or cells: Ba/F3

EGFR E709A = biological target: T15, EGFR E709A (Homo sapiens, UniProt P00533, E709A); conditions: PACC; E709A; Ba/F3; 72 hours
T15 construct: expressed in transfected cells; host or cells: Ba/F3

EGFR G724S = biological target: T16, EGFR G724S (Homo sapiens, UniProt P00533, G724S); conditions: PACC; G724S; Ba/F3; 72 hours
T16 construct: expressed in transfected cells; host or cells: Ba/F3

EGFR I740dupIPVAK = conditions: PACC; I740dupIPVAK; Ba/F3; 72 hours
EGFR L747P = biological target: T17, EGFR L747P (Homo sapiens, UniProt P00533, L747P); conditions: PACC; L747P; Ba/F3; 72 hours
T17 construct: expressed in transfected cells; host or cells: Ba/F3

EGFR S768I = biological target: T18, EGFR S768I (Homo sapiens, UniProt P00533, S768I); conditions: PACC; S768I; Ba/F3; 72 hours
T18 construct: expressed in transfected cells; host or cells: Ba/F3
Procedure: (§6) Data represent the ratio of the IC50 value for a given TKI for cells with a PACC EGFR mutation to the IC50 value for cells with wildtype EGFR.
as §2
After 48-72 hours of transduction, 2 μg/ml puromycin (Invitrogen) was added to Ba/F3 cell lines in complete RPMI. To select for EGFR positive cell lines, cells were stained with PE-EGFR (Biolegend) and sorted by FACS. After sorting, EGFR positive cells were maintained in RPMI containing 10% FBS, 1% penicillin/streptomycin, and 1 ng/ml EGF to support cell viability. Drug screening was performed as previously described^41,42. Shortly, cells were plated in 384-well plates (Greiner Bio-One) at 2000-3000 cells per well in technical triplicate. Seven different concentrations of TKIs or DMSO vehicle were added to reach a final volume of 40 μL per well. After 72 hours, 11 μL of Cell Titer Glo (Promega) was added to each well. Plates were incubated for a minimum of 10 minutes, and bioluminescence was determined using a FLUOstar OPTIMA plate reader (BMG LABTECH). Raw bioluminescence values were normalized to DMSO control treated cells, and values were plotted in GraphPad Prism. […] Drug screens were performed in technical triplicate on each plate and either duplicate or triplicate biological replicates. […] Statistical differences between groups were determined by ANOVA as described in the figure legends.

EGFR S768I/V769L = biological target: T19, EGFR S768I/V769L (Homo sapiens, UniProt P00533, S768I/V769L); conditions: PACC; S768I/V769L; Ba/F3; 72 hours
T19 construct: host or cells: Ba/F3

EGFR S768I V774M = biological target: T20, EGFR S768I V774M (Homo sapiens, UniProt P00533, S768I/V774M); conditions: PACC; S768I V774M; Ba/F3; 72 hours
T20 construct: host or cells: Ba/F3
Procedure: as §6, §2, §5

EGFR V769L = biological target: T21, EGFR V769L (Homo sapiens, UniProt P00533, V769L); conditions: PACC; V769L; Ba/F3; 72 hours
T21 construct: expressed in transfected cells; host or cells: Ba/F3
Procedure: as §6, §2, §5

EGFR V774M = biological target: T22, EGFR V774M (Homo sapiens, UniProt P00533, V774M); conditions: PACC; V774M; Ba/F3; 72 hours
T22 construct: host or cells: Ba/F3
Procedure: as §6, §2, §5

EGFR R776C = biological target: T23, EGFR R776C (Homo sapiens, UniProt P00533, R776C); conditions: PACC; R776C; Ba/F3; 72 hours
T23 construct: host or cells: Ba/F3

EGFR L858R/L718V = biological target: T24, EGFR L858R/L718V (Homo sapiens, UniProt P00533, L718V/L858R); conditions: PACC; L858R/L718V; Ba/F3; 72 hours
T24 construct: host or cells: Ba/F3
Procedure: as §6, §2, §5

EGFR L858R L718Q = biological target: T25, EGFR L858R L718Q (Homo sapiens, UniProt P00533, L718Q/L858R); conditions: PACC; L858R L718Q; Ba/F3; 72 hours
T25 construct: host or cells: Ba/F3
Procedure: as §6, §2, §5

EGFR Ex19del L718Q = biological target: T26, EGFR Ex19del L718Q (Homo sapiens, UniProt P00533, DEL746-750/L718Q); conditions: PACC; Ex19del L718Q; Ba/F3; 72 hours
T26 construct: expressed in transfected cells; host or cells: Ba/F3

ratio of IC50 for cells with mutant EGFR to IC50 for cells with wildtype EGFR (Mut/WT) (EGFR S784F): 0.08997
ratio of IC50 for cells with mutant EGFR to IC50 for cells with wildtype EGFR (Mut/WT) (EGFR L861Q): 0.002064
ratio of IC50 for cells with mutant EGFR to IC50 for cells with wildtype EGFR (Mut/WT) (EGFR S811F): 0.1673
ratio of IC50 for cells with mutant EGFR to IC50 for cells with wildtype EGFR (Mut/WT) (EGFR N771dupN): 6.261
ratio of IC50 for cells with mutant EGFR to IC50 for cells with wildtype EGFR (Mut/WT) (EGFR N771dupN G724S): 3.161
ratio of IC50 for cells with mutant EGFR to IC50 for cells with wildtype EGFR (Mut/WT) (EGFR T790M): 6.061
ratio of IC50 for cells with mutant EGFR to IC50 for cells with wildtype EGFR (Mut/WT) (EGFR L858R/T790M): 10
ratio of IC50 for cells with mutant EGFR to IC50 for cells with wildtype EGFR (Mut/WT) (EGFR G719A T790M): 0.9195
ratio of IC50 for cells with mutant EGFR to IC50 for cells with wildtype EGFR (Mut/WT) (EGFR G719S T790M): 3.776
ratio of IC50 for cells with mutant EGFR to IC50 for cells with wildtype EGFR (Mut/WT) (EGFR S768I/T790M): 1.282
ratio of IC50 for cells with mutant EGFR to IC50 for cells with wildtype EGFR (Mut/WT) (EGFR L858R T790M L792H): 8.291
ratio of IC50 for cells with mutant EGFR to IC50 for cells with wildtype EGFR (Mut/WT) (EGFR Ex19del T790M L718V): 89.62
ratio of IC50 for cells with mutant EGFR to IC50 for cells with wildtype EGFR (Mut/WT) (EGFR Ex19del/T790M/L792H): 48.51
ratio of IC50 for cells with mutant EGFR to IC50 for cells with wildtype EGFR (Mut/WT) (EGFR E709A G719S): 0.001614
ratio of IC50 for cells with mutant EGFR to IC50 for cells with wildtype EGFR (Mut/WT) (EGFR E709A): 0.04024
ratio of IC50 for cells with mutant EGFR to IC50 for cells with wildtype EGFR (Mut/WT) (EGFR G724S): 0.2379
ratio of IC50 for cells with mutant EGFR to IC50 for cells with wildtype EGFR (Mut/WT) (EGFR I740dupIPVAK): 0.01376
ratio of IC50 for cells with mutant EGFR to IC50 for cells with wildtype EGFR (Mut/WT) (EGFR L747P): 0.2972
ratio of IC50 for cells with mutant EGFR to IC50 for cells with wildtype EGFR (Mut/WT) (EGFR S768I): 17.66
ratio of IC50 for cells with mutant EGFR to IC50 for cells with wildtype EGFR (Mut/WT) (EGFR S768I/V769L): 0.2085
ratio of IC50 for cells with mutant EGFR to IC50 for cells with wildtype EGFR (Mut/WT) (EGFR S768I V774M): 0.1407
ratio of IC50 for cells with mutant EGFR to IC50 for cells with wildtype EGFR (Mut/WT) (EGFR V769L): 0.1402
ratio of IC50 for cells with mutant EGFR to IC50 for cells with wildtype EGFR (Mut/WT) (EGFR V774M): 0.04513
ratio of IC50 for cells with mutant EGFR to IC50 for cells with wildtype EGFR (Mut/WT) (EGFR R776C): 0.1215
ratio of IC50 for cells with mutant EGFR to IC50 for cells with wildtype EGFR (Mut/WT) (EGFR L858R/L718V): 0.001529
ratio of IC50 for cells with mutant EGFR to IC50 for cells with wildtype EGFR (Mut/WT) (EGFR L858R L718Q): 0.051
ratio of IC50 for cells with mutant EGFR to IC50 for cells with wildtype EGFR (Mut/WT) (EGFR Ex19del L718Q): 0.03226
Structure (SMILES): COc1cc2ncnc(Nc3ccc(F)c(Cl)c3)c2cc1NC(=O)/C=C/CN1CCCCC1 [Dacomitinib]
